Test results: the NIST ThermoML archive (doi:10.1021/je900550v)

Settings: 101.33 kPa, Liquid; for speed of sound: Pulse-echo method; for mass density: Vibrating tube method

CCCCC(=O)[O-].C[NH2+]CCO [2-hydroxy-N-methylethanaminium pentanoate]
Settings | mass density [kg/m3] | speed of sound [m/s] | viscosity [mPa·s]
308.15 K | 1009.51 | 1517.6 | 133.08
308.4 K | 1009.34 | 1516.8 | –
308.65 K | 1009.18 | 1516.1 | –
308.9 K | 1009.01 | 1515.3 | –
309.15 K | 1008.84 | 1514.5 | –
309.4 K | 1008.67 | 1513.8 | –
309.65 K | 1008.5 | 1513 | –
309.9 K | 1008.33 | 1512.2 | –
310.15 K | 1008.16 | 1511.4 | 117.28
310.4 K | 1007.99 | 1510.7 | –
310.65 K | 1007.82 | 1509.9 | –
310.91 K | 1007.65 | 1509.1 | –
311.16 K | 1007.48 | 1508.3 | –
311.4 K | 1007.31 | 1507.6 | –
311.65 K | 1007.14 | 1506.8 | –
311.91 K | 1006.97 | 1506 | –
312.16 K | 1006.8 | 1505.3 | –
312.41 K | 1006.63 | 1504.5 | –
312.66 K | 1006.46 | 1503.7 | –
312.91 K | 1006.29 | 1503 | –
313.15 K | – | – | 102.38
313.16 K | 1006.12 | 1502.2 | –
313.4 K | 1005.95 | 1501.4 | –
313.66 K | 1005.78 | 1500.7 | –
313.9 K | 1005.61 | 1499.9 | –
314.15 K | 1005.44 | 1499.1 | –
314.4 K | 1005.27 | 1498.3 | –
314.65 K | 1005.09 | 1497.6 | –
314.9 K | 1004.92 | 1496.8 | –
315.15 K | 1004.75 | 1496 | 91.92
315.41 K | 1004.58 | 1495.3 | –
315.65 K | 1004.4 | 1494.5 | –
315.91 K | 1004.24 | 1493.8 | –
316.16 K | 1004.07 | 1493 | –
316.41 K | 1003.89 | 1492.2 | –
316.66 K | 1003.72 | 1491.5 | –
316.91 K | 1003.55 | 1490.7 | –
317.16 K | 1003.38 | 1489.9 | –
317.4 K | 1003.21 | 1489.2 | –
317.66 K | 1003.04 | 1488.4 | –
317.91 K | 1002.86 | 1487.6 | –
318.15 K | – | – | 80.38
318.16 K | 1002.69 | 1486.9 | –
318.41 K | 1002.52 | 1486.1 | –
318.65 K | 1002.35 | 1485.3 | –
318.9 K | 1002.18 | 1484.6 | –
319.16 K | 1002 | 1483.8 | –
319.41 K | 1001.83 | 1483.1 | –
319.65 K | 1001.66 | 1482.3 | –
319.91 K | 1001.49 | 1481.5 | –
320.16 K | 1001.32 | 1480.8 | –
320.41 K | 1001.14 | 1480 | –
320.65 K | 1000.97 | 1479.2 | 70.74
320.91 K | 1000.8 | 1478.5 | –
321.15 K | 1000.62 | 1477.7 | –
321.41 K | 1000.45 | 1476.9 | –
321.66 K | 1000.28 | 1476.1 | –
321.9 K | 1000.1 | 1475.4 | –
322.15 K | 999.932 | 1474.6 | –
322.41 K | 999.756 | 1473.8 | –
322.65 K | 999.586 | 1473.1 | –
